Data as given in paper PMC7399811, “Analogues of a Cyclic Antimicrobial Peptide with a Flexible Linker Show Promising Activity against Pseudomonas aeruginosa and Staphylococcus aureus” (Antibiotics, 2020).
In brackets after ≈: the same amount, converted by molar mass. Square brackets hold non-standard residues; d marks the D form. Peptide text beside a SMILES is read from it. Bip = N[C@@H](Cc1ccc(-c2ccccc2)cc1)C(=O)O; 2Nal = N[C@@H](Cc1ccc2ccccc2c1)C(=O)O; Dab = NCC[C@H](N)C(=O)O; AEEA = NCCOCCOCC(=O)O

What was measured:
red blood cells = conditions: at 150 µM peptide; 0.5% v/v RBC in PBS, 1 h 37 °C, absorbance 414 nm, normalized to melittin (100%) and PBS (0%)
Procedure: A total of 150 µL of 5 µM melittin was added to the positive control wells 1-6H of a V-shaped 96-well polypropylene plate and left overnight. The melittin solution was removed and the positive control wells were washed 3 times with 150 µL PBS. Afterwards, a 2.5 µM melittin solution was added to the positive control wells. For the assay, 0-negative blood in EDTA was used. Blood was washed by mixing 3 mL of PBS with 1 mL of whole blood, and centrifuged for 8 min at 3000 rpm. The supernatant was discarded and 4 mL of PBS added, mixed gently, and centrifuged. This wash cycle was repeated but the last centrifuge velocity was raised to 4000 rpm. Next, 40 µL red blood cells (RBC) was suspended in 8 mL of PBS to achieve an RBC suspension of 0.5% volume/volume (v/v). Peptide solutions were prepared at 600 µM, two times the highest concentration. A total of 150 µL peptide solution was transferred to row A. Next, 75 µL PBS was transferred to wells B1 to G12, as well as H7-12 (negative control), and the peptides were serially diluted two-fold. Then, 75 µL RBC suspension was added to all wells and the plate was covered with a Microseal® film and incubated for 1 h at 37 °C. Next, the plate was centrifuged for 10 min at 4000 rpm. Subsequently, 60 µL supernatant was transferred into the corresponding wells of a clear, polystyrene, flat-bottomed 96-well ELISA plate. The absorbance was read at λ = 414 nm with a VersaMaxTM Tunable Microplate Reader and the data were evaluated on Softmax® Pro. The results were normalized with respect to the average positive (100%) and negative (0%) controls, as described previously [43].

A. baumannii ATCC 19606 = assay type: cell-based; conditions: ATCC 19606
Procedure: (§1) Bacterial strains (E. coli ATCC 29522, S. aureus ATCC 29213, A. baumannii ATCC 19606, and P. aeruginosa ATCC 27853) were grown overnight on LB agar plates at 37 °C. Overnight cultures were prepared by inoculation of two to three colonies in 10 mL non-cation adjusted Mueller–Hinton broth (MHB) media (BD BBLTM Beef extract powder, BD BactoTMCasamino acids, and DIFCO soluble starch). Bacterial inoculum for MIC testing was prepared as balanced cultures, as previously described. The bacterial suspension was adjusted using MHB to an OD600 of 0.1, approximately 1·10^8 colony forming units (CFU/mL), and then diluted 1:200 in MHB, to give a final bacterial suspension of 5·10^5 CFU/mL, as described by Wiegand et al.. […] For MIC determination, all peptides were measured in triplicates using the protocol described by Wiegand et al. for “antimicrobial peptides that require the presence of acetic acid/BSA”. In brief, 20 µL peptide solution and gentamycin solution was transferred to column 1 of 96-well plates. Next, 10 µL 0.2% BSA; 0.01% acetic acid MHB media was transferred to column 2–11. Subsequently, peptides were serially diluted two-fold in the MIC plate and 90 µL bacterial suspension was transferred to all wells in column 1–11. Next, 100 µL bacterial suspension was transferred to column 12 D–F (growth control) and 100 µL media to column 12 A–C (sterility control). After an overnight incubation at 37 °C of the MIC plates, MIC values were determined as the lowest concentration at which there was no visible bacterial growth. For the inoculum control, 10 µL of solution from a positive-growth control well from each bacterial strain was dissolved in 990 µL phosphate-buffered saline (PBS) (1:100 dilution) in an Eppendorf tube. This solution was vortexed and 100 µL transferred to another Eppendorf tube containing 900 µL PBS (1:10 dilution) and vortexed. Then, 100 µL of each dilution was spread onto the MHB media plates, in triplicates, to achieve a CFU dilution of 1:1000 and 1:10,000, respectively. The plates were incubated overnight at 37 °C. The colonies were counted and 50 colonies were expected on the 1:10,000 plates and 500 on the 1:1000 plates.

E. coli ATCC 29522 = assay type: cell-based; conditions: ATCC 29522
Procedure: as §1

P. aeruginosa ATCC 27853 = assay type: cell-based
Procedure: as §1

S. aureus ATCC 29213 = assay type: cell-based
Procedure: as §1

| Structure (SMILES) | percent hemolytic activity against red blood cells (%H) (red blood cells) | Minimum inhibitory concentration AB (A. baumannii ATCC 19606) | Minimum inhibitory concentration EC (E. coli ATCC 29522) | Minimum inhibitory concentration PA (P. aeruginosa ATCC 27853) | Minimum inhibitory concentration SA (S. aureus ATCC 29213) |
| --- | --- | --- | --- | --- | --- |
| N=C(N)NCCC[C@@H]1NC(=O)[C@H](Cc2ccc3ccccc3c2)NC(=O)[C@H](CCCNC(=N)N)NC(=O)[C@H](CC(N)=O)NC(=O)[C@H](CCN)NC(=O)[C@H](Cc2ccc3ccccc3c2)NC(=O)COCCOCCNC(=O)[C@H](Cc2ccccc2)NC(=O)[C@H](CCN)NC1=O [compound 16] (cyclo(R[2Nal]R[Dab]F[AEEA][2Nal][Dab]N)) | 16% | 64 µg/mL (≈ 48.7 µM) | 64 µg/mL (≈ 48.7 µM) | 16 µg/mL (≈ 12.2 µM) | – |
| NCCCC[C@@H]1NC(=O)[C@H](Cc2ccc3ccccc3c2)NC(=O)COCCOCCNC(=O)[C@H](Cc2ccc(-c3ccccc3)cc2)NC(=O)[C@H](CCCCN)NC(=O)[C@H](CCCCN)NC(=O)[C@H](Cc2ccc3ccccc3c2)NC(=O)[C@H](CC(N)=O)NC(=O)[C@H](CCCCN)NC1=O [compound 4] (cyclo(N[2Nal]KK[Bip][AEEA][2Nal]KK)) | – | 64 µg/mL (≈ 46.1 µM) | >64 µg/mL | 64 µg/mL (≈ 46.1 µM) | >64 µg/mL |
| NCCCC[C@@H]1NC(=O)[C@H](Cc2ccc3ccccc3c2)NC(=O)COCCOCCNC(=O)[C@H](Cc2ccc(-c3ccccc3)cc2)NC(=O)[C@H](CCCCN)NC(=O)[C@H](CCCCN)NC(=O)[C@H](Cc2ccc3ccccc3c2)NC(=O)[C@H](CCCCN)NC(=O)[C@H](CC(N)=O)NC1=O [BSI-9, cyclo(Lys-Nal-Lys-Lys-Bip-O2Oc-Nal-Lys-Asn), reference compound] (cyclo(K[2Nal]KK[Bip][AEEA][2Nal]KN)) | 33% | 32 µg/mL (≈ 23 µM) | 64 µg/mL (≈ 46.1 µM) | 16 µg/mL (≈ 11.5 µM) | 32 µg/mL (≈ 23 µM) |
| NCCCC[C@@H]1NC(=O)[C@H](Cc2ccc3ccccc3c2)NC(=O)COCCOCCNC(=O)[C@H](Cc2ccc(-c3ccccc3)cc2)NC(=O)[C@H](CCCCN)NC(=O)[C@H](CCCCN)NC(=O)[C@H](Cc2ccccc2)NC(=O)[C@H](CCCCN)NC(=O)[C@H](CC(N)=O)NC1=O [compound 5] (cyclo(KFKK[Bip][AEEA][2Nal]KN)) | 4% | >64 µg/mL | >64 µg/mL | 32 µg/mL (≈ 23.9 µM) | >64 µg/mL |
| NCCCC[C@@H]1NC(=O)[C@H](Cc2ccc3ccccc3c2)NC(=O)COCCOCCNC(=O)[C@H](Cc2ccc(-c3ccccc3)cc2)NC(=O)[C@H](CCCCN)NC(=O)[C@H](CC(N)=O)NC(=O)[C@H](Cc2ccc3ccccc3c2)NC(=O)[C@H](CCCCN)NC(=O)[C@H](CCCCN)NC1=O [compound 3] (cyclo(K[2Nal]NK[Bip][AEEA][2Nal]KK)) | – | 64 µg/mL (≈ 46.1 µM) | >64 µg/mL | 64 µg/mL (≈ 46.1 µM) | 64 µg/mL (≈ 46.1 µM) |
| N=C(N)NCCC[C@@H]1NC(=O)[C@H](CC(N)=O)NC(=O)[C@H](CCN)NC(=O)[C@H](Cc2ccc3ccccc3c2)NC(=O)COCCOCCNC(=O)[C@H](Cc2ccccc2)NC(=O)[C@H](CCN)NC(=O)[C@H](CCN)NC(=O)[C@H](Cc2ccc3ccccc3c2)NC1=O [compound 17] (cyclo(R[2Nal][Dab][Dab]F[AEEA][2Nal][Dab]N)) | 3% | >64 µg/mL | 64 µg/mL (≈ 50.9 µM) | 16 µg/mL (≈ 12.7 µM) | 64 µg/mL (≈ 50.9 µM) |
| NCCCC[C@@H]1NC(=O)[C@H](Cc2ccc3ccccc3c2)NC(=O)COCCOCCNC(=O)[C@H](Cc2ccccc2)NC(=O)[C@H](CCCCN)NC(=O)[C@H](CCCCN)NC(=O)[C@H](Cc2ccc3ccccc3c2)NC(=O)[C@H](CCCCN)NC(=O)[C@H](CC(N)=O)NC1=O [compound 6] (cyclo(K[2Nal]KKF[AEEA][2Nal]KN)) | 6% | >64 µg/mL | >64 µg/mL | 32 µg/mL (≈ 24.4 µM) | >64 µg/mL |
| NCCCC[C@@H]1NC(=O)[C@H](Cc2ccc3ccccc3c2)NC(=O)COCCOCCNC(=O)[C@H](Cc2ccc(-c3ccccc3)cc2)NC(=O)[C@H](CC(N)=O)NC(=O)[C@H](CCCCN)NC(=O)[C@H](Cc2ccc3ccccc3c2)NC(=O)[C@H](CCCCN)NC(=O)[C@H](CCCCN)NC1=O [compound 2] (cyclo(K[2Nal]KN[Bip][AEEA][2Nal]KK)) | – | >64 µg/mL | >64 µg/mL | 64 µg/mL (≈ 46.1 µM) | >64 µg/mL |
| N=C(N)NCCC[C@@H]1NC(=O)[C@H](Cc2ccc3ccccc3c2)NC(=O)[C@H](CCN)NC(=O)[C@H](CC(N)=O)NC(=O)[C@H](CCN)NC(=O)[C@H](Cc2ccc3ccccc3c2)NC(=O)COCCOCCNC(=O)[C@H](Cc2ccccc2)NC(=O)[C@H](CCN)NC1=O [compound 18] (cyclo([Dab][2Nal]R[Dab]F[AEEA][2Nal][Dab]N)) | 30% | >64 µg/mL | 64 µg/mL (≈ 50.9 µM) | 16 µg/mL (≈ 12.7 µM) | 64 µg/mL (≈ 50.9 µM) |
| N=C(N)NCCC[C@@H]1NC(=O)[C@H](Cc2ccc3ccccc3c2)NC(=O)[C@H](CCCNC(=N)N)NC(=O)[C@H](CC(N)=O)NC(=O)[C@H](CCN)NC(=O)[C@H](Cc2ccc3ccccc3c2)NC(=O)COCCOCCNC(=O)[C@H](Cc2ccc(-c3ccccc3)cc2)NC(=O)[C@H](CCN)NC1=O [compound 15] (cyclo(R[2Nal]R[Dab][Bip][AEEA][2Nal][Dab]N)) | – | >64 µg/mL | 64 µg/mL (≈ 46.1 µM) | 16 µg/mL (≈ 11.5 µM) | 8 µg/mL (≈ 5.76 µM) |
| N=C(N)NCCC[C@@H]1NC(=O)[C@H](CCN)NC(=O)[C@H](Cc2ccc3ccccc3c2)NC(=O)[C@H](CCN)NC(=O)[C@H](CC(N)=O)NC(=O)[C@H](CCN)NC(=O)[C@H](Cc2ccc3ccccc3c2)NC(=O)COCCOCCNC(=O)[C@H](Cc2ccc(-c3ccccc3)cc2)NC1=O [compound 12] (cyclo([Dab][2Nal][Dab]R[Bip][AEEA][2Nal][Dab]N)) | 98% | 32 µg/mL (≈ 24 µM) | 32 µg/mL (≈ 24 µM) | 4 µg/mL (≈ 3 µM) | 1 µg/mL (≈ 0.75 µM) |
| NCCCC[C@@H]1NC(=O)[C@H](Cc2ccccc2)NC(=O)COCCOCCNC(=O)[C@H](Cc2ccc(-c3ccccc3)cc2)NC(=O)[C@H](CCCCN)NC(=O)[C@H](CCCCN)NC(=O)[C@H](Cc2ccc3ccccc3c2)NC(=O)[C@H](CCCCN)NC(=O)[C@H](CC(N)=O)NC1=O [compound 7] (cyclo(K[2Nal]KK[Bip][AEEA]FKN)) | 7% | 64 µg/mL (≈ 47.8 µM) | >64 µg/mL | 64 µg/mL (≈ 47.8 µM) | >64 µg/mL |
| NCCCC[C@@H]1NC(=O)[C@H](CCCCN)NC(=O)[C@H](Cc2ccc3ccccc3c2)NC(=O)[C@H](CCCCN)NC(=O)[C@H](CCCCN)NC(=O)[C@H](CC(N)=O)NC(=O)[C@H](Cc2ccc3ccccc3c2)NC(=O)COCCOCCNC(=O)[C@H](Cc2ccc(-c3ccccc3)cc2)NC1=O [compound 1] (cyclo(K[2Nal]KK[Bip][AEEA][2Nal]NK)) | – | 32 µg/mL (≈ 23 µM) | >64 µg/mL | 32 µg/mL (≈ 23 µM) | >64 µg/mL |
